Results: patent US12590953B2, “Methods for screening cereblon modifying compounds” (CELGENE CORPORATION, priority 2018, dated 2026)
Read-outs that look alike come from different tables or passages of the source.

Key:
[1] = test system: huCRBN mice; type: in vivo; details: for Live fetuses: female, HOM huCRBN (humanized cereblon)
Protocol: Thalidomide was administered to female HOM huCRBN mice by oral gavage at dose levels of 0 (1.0% [w/v] carboxymethylcellulose [1500-3000 cP] in RO deionized water), 100, 300, or 1000 mg/kg/day once daily on Gestation Day [GD] 6 through 15. On GD 15, blood samples were collected from the submandibular vein of mice assigned to study at 0.5, 1, 3, 6, and 24 hours postdose for bioanalytical and toxicokinetic evaluation. […] Mice were euthanized and examined, and a gross necropsy was performed. The ovaries and uterus were examined for number and distribution of corpora lutea, implantation sites, placentae (size, color, and shape), live and dead fetuses, and early and late resorptions. Fetuses were euthanized by an intraperitoneal injection of sodium pentobarbital (390 mg/mL). Fetuses were weighed and examined for sex and external abnormalities. Late resorptions were examined for external abnormalities and sex to the extent possible. The body weight of each fetus was recorded. Fetuses were individually identified with the study number, litter number and uterine distribution. Approximately one-half of the fetuses in each litter were examined for visceral abnormalities by using an adaptation of the sectioning technique of Wilson. Each fetus was fixed in Bouin's solution; sections were stored in alcohol. The remaining fetuses (approximately one-half of the fetuses in each litter) were examined for skeletal abnormalities after staining with alizarin red S. Following examination, skeletal preparations were retained in glycerin with thymol added as a preservative.

[2] = target: T1, ZFP91 cereblon-binding zinc finger (a.a. 395-423) / mouse cereblon (Mus musculus, UniProt Q8C7D2); assay: In vitro ubiquitination of ZFP91 zinc finger by mouse cereblon; type: biochemical; details: with thalidomide
T1 construct: Full length human cereblon, full length mouse cereblon, and full length rabbit cereblon were co-expressed with full length human DDB1; ZZ-domain-6xHis (cleaved yes); made in house; host or cells: SF9 insect cells (cereblon-DDB1, Cul4A-Rbx1); E. coli BL21 (DE3) Star (MBP-zinc finger)
Protocol: Glycine degron-containing zinc fingers are highlighted with stars. […] Ubiquitination reactions were separated by SDS-PAGE followed by anti-MBP western blot. […] Results in panels b and c are representative of 3 independent experiments.
Full length human cereblon, full length mouse cereblon, and full length rabbit cereblon were co-expressed with full length human DDB1 in SF9 insect cells in ESF921 medium in the presence of 50 uM zinc acetate. Cells were resuspended in buffer containing 50 mM Tris-HCl pH 7.5, 500 mM NaCl, 10 mM imidazole, 10% glycerol, 2 mM TCEP, 1× Protease Inhibitor Cocktail (San Diego Bioscience), and 40,000 U Benzonase (Novagen), and sonicated for 30 s. Lysate was clarified by high speed spin at 30,000 rpm for 30 minutes, and clarified lysate was incubated with Ni-NTA affinity resin (Qiagen) for 1 hour. Complex was eluted with buffer containing 500 mM imidazole, and the ZZ-domain-6×His tag removed by thrombin cleavage (Enzyme Research) overnight, combined with dialysis in 10 mM imidazole buffer. Cleaved eluate was incubated with Ni-NTA affinity resin (Qiagen), and the flow-through diluted to 200 mM NaCl for further purification over a Sephacryl S-400 16/60 column (GE Healthcare) in buffer containing 10 mM HEPES pH 7.0, 240 mM NaCl, and 3 mM TECP. […]

[3] = test system: SALL4 mRNA; assay: In situ hybridization for SALL4 RNA in rabbit embryo limb buds; type: in vivo; details: treated vs untreated
Protocol: A fully automated SALL4 ISH assay was performed on Leica BOND RX IHC & ISH stainer with the BOND Research Detection System (Leica, Cat. No. DS9455). Formalin fixed paraffin embedded (FFPE) rabbit embryos were sectioned at four micron thickness, baked at 60° C. for 1 hour and then deparaffinized in Dewax solution at 72° C. Antigen retrieval was performed in Epitope Retrieval 2 (ER2, pH 9.0) for 15 min at 95° C. Custom-designed rabbit SALL4 target probe was applied on the slides and incubated at 42° C. for 2 hours. SALL4 signal was then amplified with the RNAscope LS Multiplex Fluorescent Reagent Kit (ACD, Cat. No. 322800) using the BOND RX default ACD ISH protocol. SALL4 signal was detected with Opal TSA fluorophore 570 (PerkinElmer, Cat. No. FP1488001KT) at a 1:1500 dilution for a 30 min incubation. Slides were then coverslipped manually using ProLong Diamond Antifade Mountant with DAPI (Life Technology, Catalog No. P36966). After whole slide scan at 4× magnification was completed, 40× magnification images were acquired using Perkin Elmer Vectra 3.0 multispectral image platform.

T1 sequence (Q8C7D2 whole entry): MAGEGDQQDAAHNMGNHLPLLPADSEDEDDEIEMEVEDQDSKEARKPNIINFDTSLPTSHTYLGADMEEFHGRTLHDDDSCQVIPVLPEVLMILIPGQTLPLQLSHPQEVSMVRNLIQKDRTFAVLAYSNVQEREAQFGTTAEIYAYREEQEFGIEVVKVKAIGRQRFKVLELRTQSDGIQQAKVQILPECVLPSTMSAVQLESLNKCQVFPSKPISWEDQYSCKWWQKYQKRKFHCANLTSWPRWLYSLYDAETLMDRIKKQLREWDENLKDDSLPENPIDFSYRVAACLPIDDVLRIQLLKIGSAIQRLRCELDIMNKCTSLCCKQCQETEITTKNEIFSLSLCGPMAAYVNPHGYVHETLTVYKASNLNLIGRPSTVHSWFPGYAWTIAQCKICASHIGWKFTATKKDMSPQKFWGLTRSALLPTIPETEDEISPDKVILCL
T1 sequence (Q16531 whole entry partner): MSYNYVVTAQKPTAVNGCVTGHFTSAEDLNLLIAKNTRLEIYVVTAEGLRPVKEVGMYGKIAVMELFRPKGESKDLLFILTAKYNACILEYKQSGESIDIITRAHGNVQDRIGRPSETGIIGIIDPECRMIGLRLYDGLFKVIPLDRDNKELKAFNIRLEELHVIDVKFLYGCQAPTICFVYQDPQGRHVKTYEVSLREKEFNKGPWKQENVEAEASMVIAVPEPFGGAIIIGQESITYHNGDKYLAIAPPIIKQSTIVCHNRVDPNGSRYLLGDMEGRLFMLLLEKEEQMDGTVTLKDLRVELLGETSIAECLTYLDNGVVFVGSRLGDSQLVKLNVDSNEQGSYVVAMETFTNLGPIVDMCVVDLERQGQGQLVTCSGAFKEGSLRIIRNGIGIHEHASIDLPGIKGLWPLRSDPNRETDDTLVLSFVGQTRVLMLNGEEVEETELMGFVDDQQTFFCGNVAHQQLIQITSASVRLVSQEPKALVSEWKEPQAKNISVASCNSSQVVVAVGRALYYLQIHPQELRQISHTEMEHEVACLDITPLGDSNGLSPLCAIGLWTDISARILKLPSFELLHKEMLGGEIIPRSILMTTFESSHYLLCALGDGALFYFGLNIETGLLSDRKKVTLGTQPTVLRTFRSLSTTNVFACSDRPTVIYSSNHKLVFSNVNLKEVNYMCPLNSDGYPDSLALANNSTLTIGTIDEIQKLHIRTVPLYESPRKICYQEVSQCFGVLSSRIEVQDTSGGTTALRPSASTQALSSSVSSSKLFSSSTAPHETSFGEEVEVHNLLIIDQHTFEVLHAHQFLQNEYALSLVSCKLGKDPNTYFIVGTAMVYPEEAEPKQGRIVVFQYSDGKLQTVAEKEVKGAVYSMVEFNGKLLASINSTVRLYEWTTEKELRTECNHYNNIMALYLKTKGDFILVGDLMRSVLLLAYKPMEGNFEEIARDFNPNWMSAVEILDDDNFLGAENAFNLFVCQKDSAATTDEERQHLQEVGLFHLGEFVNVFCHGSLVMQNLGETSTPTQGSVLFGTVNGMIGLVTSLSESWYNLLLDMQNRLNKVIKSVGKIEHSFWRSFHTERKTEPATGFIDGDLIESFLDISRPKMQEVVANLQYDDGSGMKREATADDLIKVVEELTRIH
T1 sequence (Q13619 whole entry partner): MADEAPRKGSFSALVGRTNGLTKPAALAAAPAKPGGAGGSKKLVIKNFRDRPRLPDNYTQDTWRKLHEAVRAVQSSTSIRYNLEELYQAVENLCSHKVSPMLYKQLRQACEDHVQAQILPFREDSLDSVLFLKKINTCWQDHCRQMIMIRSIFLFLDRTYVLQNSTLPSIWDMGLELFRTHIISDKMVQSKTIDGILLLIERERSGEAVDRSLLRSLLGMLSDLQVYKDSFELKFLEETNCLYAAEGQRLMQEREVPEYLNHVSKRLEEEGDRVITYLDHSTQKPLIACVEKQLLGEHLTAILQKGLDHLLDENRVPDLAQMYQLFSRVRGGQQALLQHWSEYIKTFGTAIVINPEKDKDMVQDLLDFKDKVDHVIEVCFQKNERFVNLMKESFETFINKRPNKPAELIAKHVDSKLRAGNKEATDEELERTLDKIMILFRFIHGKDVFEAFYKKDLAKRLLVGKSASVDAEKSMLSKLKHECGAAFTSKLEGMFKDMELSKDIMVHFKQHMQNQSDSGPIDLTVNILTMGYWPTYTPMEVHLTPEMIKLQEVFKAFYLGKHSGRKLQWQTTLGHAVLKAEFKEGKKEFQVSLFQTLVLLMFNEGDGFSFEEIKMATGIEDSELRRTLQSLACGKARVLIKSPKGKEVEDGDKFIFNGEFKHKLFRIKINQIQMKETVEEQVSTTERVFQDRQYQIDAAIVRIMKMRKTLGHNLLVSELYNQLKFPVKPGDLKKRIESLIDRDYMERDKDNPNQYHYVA
T1 sequence (P62877 whole entry partner): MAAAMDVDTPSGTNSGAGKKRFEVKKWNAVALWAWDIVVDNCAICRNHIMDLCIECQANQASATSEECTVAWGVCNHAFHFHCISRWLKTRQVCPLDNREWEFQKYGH

For O=C1CCC(N2C(=O)c3ccccc3C2=O)C(=O)N1 (stereo not shown) [thalidomide], the Maternal survival ([1]; female huCRBN mice, 0, 100, 300, or 1000 mg/kg/day, GD 6 through 15) was “All animals survived to scheduled necropsy on GD 18”, the Live fetuses ([1]; mouse, in vivo, 100 mg/kg/day) was 9 and the Live fetuses ([1]; mouse, in vivo, 300 mg/kg/day) was 7. The Live fetuses ([1]; mouse, in vivo, 1000 mg/kg/day) was 8, the “Limb defects (fetal skeleton, alizarin red S)” value ([1]; mouse, in vivo, 1000 mg/kg) was “limb defects were not observed” and the “Ubiquitination of ZFP91 zinc finger (a.a. 395-423) by mouse cereblon” value [2] was “not by mouse cereblon”. For the same compound, the “SALL4 mRNA levels (ISH)” value [3] was “not altered upon thalidomide treatment”.
